Laboratory results from US8334105B2, “Methods for treating cardiac disease by modifying an N-terminal domain of troponin I” (Northshore University Healthsystem, priority 2004, dated 2012).

Key:
[1] = tested on: isolated working mouse hearts; test: Langendorff-Neely isolated working heart preparation
Protocol: Cardiac function of wild-type and transgenic mice were measured at 5-6 months of age using the Langendorff-Neely isolated working heart preparation, at a constant preload of 10 mmHg and an afterload of 55 mmHg, as previously described (29-31, incorporated herein by reference). Mice were anesthetized as above and the thoracic cavity was opened by a transverse incision to access the heart. Retrograde perfusion through the aorta was initiated within 60 seconds after removal of the heart. After establishing left atrial perfusion, the heart was switched to working mode. The hearts were perfused with Krebs-Henseleit bicarbonate buffer aerated with 95% O2-5% CO2 at 37° C. (pH=7.4). The buffer contents were as follows (in mM): 118 NaCl, 4.7 KCl, 2.25 CaCl2, MgSO4, 1.2 KH2PO4, 0.32 EGTA, 25 NaHCO3, and 11 D-glucose (29). Functions of the isolated working hearts were measured on intrinsic beats at 37° C. with no artificial pacing applied.
Aortic flow and coronary effluent were collected once every two minutes over a 30-minute period. Heart rate and the maximum rate of pressure development (dP/dt) were measured using an MLT844 pressure transducer (Capto, Horten, Norway) attached to the aortic cannula. […]
Stroke volume (μL/g heart tissue) was calculated as the sum of aortic flow and coronary effluent, normalized to heart rate. Stroke work (mL-mmHg/g heart tissue) was calculated as stroke volume X average aortic pressure (diastolic pressure+one-third of pulse pressure) (mmHg). During the collection of aortic flow, time to peak pressure (TTP) and the relaxation times (RT) at 10, 50 and 80% total relaxation (RT10, RT50 and RT80, respectively) were measured from the pressure traces. Systolic and diastolic pressure time integrals (STI, correlating with myocardial energy expenditure (31-34), and DTI, correlating with diastolic function and coronary perfusion (35-42), respectively) were calculated by integrating the systolic and diastolic portions of the pressure waves. […]

[2] = tested on: actomyosin ATPase of mouse cardiac myofibrils; test: Actomyosin MgATPase assay of isolated cardiac myofibrils (Ca2+ sensitivity); assay type: biochemical
Protocol: Mice were anesthetized with sodium pentobarbital (50 mg/kg body weight, i.p.). Hearts removed from transgenic or control mice were perfused in a retrograde manner, either with normal saline or with saline containing 20 nM isoproterenol. Cardiac myofibrils were prepared according to the method described by Solaro et al. (23, incorporated herein by reference) with modifications. These include the use of NaF (50 mM), EGTA (2.5 mM), and KH2PO4 as phosphatase inhibitors and phenylmethylsulphonyl fluoride (0.2 mM) as a protease inhibitor (24). The ventricular muscle was pulverized in a food blender for 10 seconds in 50 ml buffer containing 0.5% (v/v) Triton X-100®, 60 mM KCl, 30 mM imidazole, pH 7.0, 2 mM MgCl2, and 1 mM DTT, incubated for 5 min and centrifuged at 2,500×g for 2 min. Pellets were washed three times in buffer containing 60 mM KCl, 30 mM imidazole, pH 7.0, 2 mM MgCl2, and 1 mM DTT.
Actomyosin MgATPase assays were performed to titrate the Ca^2+ sensitivity of the transgenic and wild-type mouse cardiac myofibrils under constant ionic strength, using the stability constants compiled by Fabiato (25), and were performed at pH 7.0 with 50 mM imidazole, 50 mM KCl, and 2 mM MgATP at 37° C. Inorganic phosphate release was measured as the amount of heteropolymolybdenum (26) using an automated microtiter plate reader (Bio-Rad Benchmark) for optical density at 660 nm, as described previously (27, incorporated herein by reference).

transgenic mouse hearts = test: Observation of transgenic mice and hearts for hypertrophy and abnormality; assay type: in vivo
Description: Transgenic mice over-expressing various levels of cTnI-ND in the heart are apparently normal in life activities.

| maximum actomyosin ATPase rate with isoproterenol treatment, WT myofibrils ([2]; WT cardiac myofibrils, with isoproterenol treatment) [nmole Pi/mg protein/min] | pCa50 ([2]; myofibrils from isoproterenol perfused WT hearts) | maximum Ca^2+-activated actomyosin ATPase rate ([2]; cTnI-ND cardiac myofibrils, base line) [nmole Pi/mg protein/min] | Molecule | −dP/dt produced by isoproterenol treatment in WT hearts ([1]; 10 nM isoproterenol, WT hearts) [mmHg-sec^−1] | effect of isoproterenol on velocity of contraction (+dP/dt) ([1]; 10 nM isoproterenol, WT, INT-cTnI-ND and H-cTnI-ND hearts) | effect of isoproterenol on relaxation velocity ([1]; 30 nM and 50 nM isoproterenol perfusions, all three groups of hearts) | maximum actomyosin ATPase rate with isoproterenol treatment, cTnI-ND myofibrils ([2]; cTnI-ND cardiac myofibrils, with isoproterenol treatment) [nmole Pi/mg protein/min] | hypertrophy (heart weight/body weight ratio, diameter of cardiac myocytes) (transgenic mouse hearts; compared with wild type controls) | anatomical or histological abnormality of hearts (transgenic mouse hearts; transgenic mouse hearts) |
| --- | --- | --- | --- | --- | --- | --- | --- | --- | --- |
| 418±57 | 5.91±0.05 | – | CC(C)NCC(O)c1ccc(O)c(O)c1 (stereo not drawn) [isoproterenol] | 2087±58 | increased in all three groups | significant increases in relaxation velocity | – | – | – |
| – | – | 417±48 | cTnI-ND: N-terminus truncated mouse cardiac troponin I that lacks amino acids 1-28, over-expressed in transgenic mouse hearts | – | – | – | 421±43 | No evidence of hypertrophy | no evidence of anatomical or histological abnormality |
